From PMC7395068, “The evolution of strategies to minimise the risk of human drug-induced liver injury (DILI) in drug discovery and development” (Archives of Toxicology, 2020)
Read-outs that look alike come from different tables or passages of the source.

Assays:
PHH = conditions: cited from earlier work
hLiMTs [1] = assay: Combined HCI (HCS) and cellular ATP 3D assay in hLiMTs; conditions: for AC50 / minimal effective concentration: Homo sapiens
hLiMTs [2] = conditions: cited from earlier work
HepaRG spheroids = assay: Combined HCI (HCS) and cellular ATP 3D assay in HepaRG spheroids; conditions: HepaRG; for AC50 / minimal effective concentration: Homo sapiens
PHH spheroids = conditions: In vitro Assay; ref Vorrink 2018; cited from earlier work
[3] = cited from earlier work
[4] = cited from earlier work; remark: listed apart in the source
[5] = system: isolated mouse liver mitochondria; conditions: In vitro Assay; ref Porceddu 2012; cited from earlier work
human hepatocytes = conditions: In vitro Assay; ref Xu 2008; cited from earlier work
[6] = system: primary human hepatocytes, NIH3T3 fibroblasts, BSEP, CYP3A4; conditions: In vitro Assay; ref Schadt 2015; cited from earlier work
rBsep = conditions: cited from earlier work
HepG2 cells [7] = conditions: In vitro Assay; ref Persson 2013; cited from earlier work
[8] = system: THLE or HepG2 cells, isolated mitochondria, BSEP; conditions: In vitro Assay; ref Aleo 2019; cited from earlier work
HepG2 cells [9] = conditions: In vitro Assay; ref O'Brien 2006; cited from earlier work
[10] = In vitro Assay, ref Proctor 2017

## NCCCC(O)(P(=O)(O)O)P(=O)(O)O [alendronate]
PHH; 2D PHH, ATP, IC50 threshold 100 µM, ref Proctor et al. 2017
  PHH/100uM, Proctor (2017): -VE
PHH; [10]
  PHH ATP <100uM: -VE
hLiMTs [1]; read-out: ATP endpoint AC50
  AC50: 7.71 µM
hLiMTs [1]; read-out: ATP endpoint MEC
  minimal effective concentration: 2.86 µM
hLiMTs [1]; read-out: HCS endpoint AC50
  AC50: 15.6 µM
hLiMTs [1]; read-out: HCS endpoint MEC
  minimal effective concentration: 2.24 µM
hLiMTs [1]; hLiMTs, all endpoints, cut-off <10 uM
  hLiMTs <10 uM All: +ve (<10 uM)
hLiMTs [2]; [10]
  hLiMTs ATP <100uM: -VE
hLiMTs [2]; hLiMTs, ATP, IC50 threshold 100 µM, ref Proctor et al. 2017
  hLiMTs/100uM, Proctor (2017): -VE
HepaRG spheroids; all endpoints, cut-off <10 uM
  HepaRG <10 uM All: +ve (<10 uM)
HepaRG spheroids; read-out: ATP endpoint AC50
  AC50: 0.822 µM
HepaRG spheroids; read-out: ATP endpoint MEC
  minimal effective concentration: 0.291 µM
HepaRG spheroids; read-out: HCS endpoint AC50
  AC50: 3.13 µM
HepaRG spheroids; read-out: HCS endpoint MEC
  minimal effective concentration: 0.58 µM

## N=C(N)NC(=O)c1nc(Cl)c(N)nc1N [amiloride]
PHH spheroids
  hLiMTs ATP <20 x Cmax: -VE
[3]; in vivo
  In vivo DILI: -VE
[4]; in vivo
  DILI +VE (5-8), DILI -VE (-4): +VE
  DILI severity category: vLess-DILI-Concern

## CC(C)c1c(C(=O)Nc2ccccc2)c(-c2ccccc2)c(-c2ccc(F)cc2)n1CC[C@@H](O)C[C@@H](O)CC(=O)O [atorvastatin]
PHH; [10]
  PHH ATP <100uM: -VE
[5]
  in vitro data EC20<=2uM: +VE
hLiMTs [2]; [10]
  hLiMTs ATP <100uM: +VE (IC50 threshold of 100 µM)

## C[C@]12CC[C@@H]3c4ccc(O)cc4CC[C@H]3[C@@H]1CC[C@@H]2O [beta-estradiol]
PHH; [10]
  PHH ATP <100uM: -VE
[5]
  in vitro data EC2<=1x Cmax: -VE
  in vitro data EC20<=2uM: -VE
hLiMTs [2]; [10]
  hLiMTs ATP <100uM: +VE (IC50 threshold of 100 µM)

## CN(C)CCC(c1ccc(Br)cc1)c1ccccn1 (centres unmarked) [brompheniramine]
Human hepatocytes
  Structural based (HCI): -VE
PHH spheroids
  hLiMTs ATP <20 x Cmax: -VE

## [H]/N=C(/N)c1ccc(NCc2nc3cc(C(=O)N(CCC(=O)O)c4ccccn4)ccc3n2C)cc1 [dabigatran]
PHH; [10]
  PHH ATP <100uM: -VE
[6]
  Cellular toxicity (3T3 cells): -VE
  Combined Assay: -VE
  GSH adduct HML: -VE
  Hepatocyte cellular toxicity: +VE
  MitoTox 3T3: -VE
  TDI CYP3A4: -VE
  hBSEP inhibition: +VE
[3]; ref Proctor 2017
  In vivo DILI: -VE
[3]; ref Schadt 2015
  In vivo DILI: -VE
hLiMTs [2]; [10]
  hLiMTs ATP <100uM: -VE

## CCN(CC)C(=O)N1CCN(C)CC1 [diethylcarbamazine]
Human hepatocytes
  Structural based (HCI): -VE
PHH spheroids
  hLiMTs ATP <20 x Cmax: -VE

## COc1cc2c(cc1OC)C(=O)C(CC1CCN(Cc3ccccc3)CC1)C2 (centres unmarked) [donepezil]
hLiMTs [1]; read-out: ATP endpoint AC50
  AC50: 9.76 µM
hLiMTs [1]; read-out: ATP endpoint MEC
  minimal effective concentration: 3.17 µM
hLiMTs [1]; read-out: HCS endpoint AC50
  AC50: 7.19 µM
hLiMTs [1]; read-out: HCS endpoint MEC
  minimal effective concentration: 0.487 µM
rBsep
  Inhibition of rBsep cutoff<3: -VE
HepaRG spheroids; read-out: ATP endpoint MEC
  minimal effective concentration: 6.49 µM
HepaRG spheroids; read-out: HCS endpoint MEC
  minimal effective concentration: 9.43 µM

## CCN1C(=O)NC(c2ccccc2)C1=O (centres unmarked) [ethotion]
PHH
  PHH ATP <100uM: -VE
hLiMTs [2]
  hLiMTs ATP <100uM: -VE

## CCOC(=O)C1=C(C)NC(C)=C(C(=O)OC)C1c1cccc(Cl)c1Cl (centres unmarked) [felodipine]
PHH
  PHH ATP <100uM: -VE
[3]; in vivo
  In vivo DILI: -VE
[4]; in vivo
  DILI +VE (5-8), DILI -VE (-4): +VE
  DILI severity category: vLess-DILI-Concern
hLiMTs [2]
  hLiMTs ATP <100uM: -VE

## CCC1=C(C)CN(C(=O)NCCc2ccc(S(=O)(=O)NC(=O)N[C@H]3CC[C@H](C)CC3)cc2)C1=O [glimepiride]
Human hepatocytes
  Structural based (HCI): -VE
HepG2 cells [7]
  Cluser analysis: -VE
  Structural based (HCI): -VE
[5]
  in vitro data EC2<=1x Cmax: -VE
  in vitro data EC20<=2uM: +VE
[3]; ref Aleo 2019
  In vivo DILI: +VE
[3]; ref O'Brien 2006
  In vivo DILI: -VE
[3]; ref Persson 2013
  In vivo DILI: -VE
[3]; ref Porceddu 2012
  In vivo DILI: +VE
[3]; ref Xu 2008
  In vivo DILI: -VE
[4]; ref Chen 2016
  DILI +VE (5-8), DILI -VE (-4): +VE
  DILI severity category: vLess-DILI-Concern
[8]
  Partition Hybrid HRM Score: -VE
  Ro2 Hybrid HRM Score: -VE
HepG2 cells [9]
  Structural based (HCI): -VE

## C[N+](C)(C)C[C@H](O)CC(=O)[O-] [levocarnitine]
PHH; [10]
  PHH ATP <100uM: -VE
[3]; ref Proctor 2017
  In vivo DILI: -VE
hLiMTs [2]; [10]
  hLiMTs ATP <100uM: -VE

## Cc1cnc(NC(=O)C2=C(O)c3ccccc3S(=O)(=O)N2C)s1 [meloxicam]
PHH
  PHH ATP <100uM: -VE
[6]
  Cellular toxicity (3T3 cells): -VE
  Combined Assay: -VE
  GSH adduct HML: -VE
  Hepatocyte cellular toxicity: -VE
  MitoTox 3T3: -VE
  TDI CYP3A4: -VE
  hBSEP inhibition: -VE
[4]; in vivo
  DILI +VE (5-8), DILI -VE (-4): +VE
  DILI severity category: vLess-DILI-Concern
hLiMTs [2]
  hLiMTs ATP <100uM: -VE
